#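 Five concentrations, 48 hours, 96-well plates. TGI is the concentration that stops growth completely.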
# Columns and labels:
# Assay in all cases: NCI anticancer screen, dose series, 48 h
# 786-0 renal = system: 786-0 renal
# A549 NSCLC = system: A549 NSCLC
# ACHN renal = system: ACHN renal
# CAKI-1 renal = system: CAKI-1 renal
# CCRF-CEM leukemia = system: CCRF-CEM leukemia
# COLO 205 colon = system: COLO 205 colon
# DU-145 prostate = system: DU-145 prostate
# EKVX NSCLC = system: EKVX NSCLC
# HCC-2998 colon = system: HCC-2998 colon
# HCT-116 colon = system: HCT-116 colon
# HCT-15 colon = system: HCT-15 colon
# HL-60(TB) leukemia = system: HL-60(TB) leukemia
# HOP-62 NSCLC = system: HOP-62 NSCLC
# HOP-92 NSCLC = system: HOP-92 NSCLC
# HS 578T breast = system: HS 578T breast
# HT29 colon = system: HT29 colon
# IGROV1 ovarian = system: IGROV1 ovarian
# K-562 leukemia = system: K-562 leukemia
# KM12 colon = system: KM12 colon
# LOX IMVI melanoma = system: LOX IMVI melanoma
# M14 melanoma = system: M14 melanoma
# MALME-3M melanoma = system: MALME-3M melanoma
# MCF7 breast = system: MCF7 breast
# MDA-MB-231 breast = system: MDA-MB-231 breast
# MDA-MB-435 = system: MDA-MB-435
# MDA-N = system: MDA-N
# NCI-H226 lung = system: NCI-H226 lung
# NCI-H23 lung = system: NCI-H23 lung
# NCI-H460 lung = system: NCI-H460 lung
# NCI/ADR-RES ovarian = system: NCI/ADR-RES ovarian
# OVCAR-3 ovarian = system: OVCAR-3 ovarian
# OVCAR-4 ovarian = system: OVCAR-4 ovarian
# OVCAR-5 ovarian = system: OVCAR-5 ovarian
# OVCAR-8 ovarian = system: OVCAR-8 ovarian
# PC-3 prostate = system: PC-3 prostate
# RPMI-8226 leukemia = system: RPMI-8226 leukemia
# RXF 393 renal = system: RXF 393 renal
# SF-268 CNS = system: SF-268 CNS
# SF-295 CNS = system: SF-295 CNS
# SF-539 CNS = system: SF-539 CNS
# SK-MEL-2 melanoma = system: SK-MEL-2 melanoma
# SK-MEL-28 melanoma = system: SK-MEL-28 melanoma
# SK-MEL-5 melanoma = system: SK-MEL-5 melanoma
# SK-OV-3 ovarian = system: SK-OV-3 ovarian
# SN12C renal = system: SN12C renal
# SNB-19 CNS = system: SNB-19 CNS
# SNB-75 CNS = system: SNB-75 CNS
# SR leukemia = system: SR leukemia
# SW-620 colon = system: SW-620 colon
# T-47D breast = system: T-47D breast
# TK-10 renal = system: TK-10 renal
# U251 CNS = system: U251 CNS
# UACC-257 melanoma = system: UACC-257 melanoma
# UACC-62 melanoma = system: UACC-62 melanoma
# UO-31 renal = system: UO-31 renal
# A498 renal = system: A498 renal
# MOLT-4 leukemia = system: MOLT-4 leukemia
# BT-549 breast = system: BT-549 breast
# NCI-H522 lung = system: NCI-H522 lung
smiles,measurement,setting,value
CC1(C)/C(=C/N=O)N(O)C(C)(C)N1O,TGI,786-0 renal,> 100 µM
same,TGI,A549 NSCLC,> 100 µM
same,TGI,ACHN renal,> 100 µM
same,TGI,CAKI-1 renal,> 100 µM
same,TGI,CCRF-CEM leukemia,> 100 µM
same,TGI,COLO 205 colon,> 100 µM
same,TGI,DU-145 prostate,> 100 µM
same,TGI,EKVX NSCLC,> 100 µM
same,TGI,HCC-2998 colon,> 100 µM
same,TGI,HCT-116 colon,> 100 µM
same,TGI,HCT-15 colon,> 100 µM
same,TGI,HL-60(TB) leukemia,> 100 µM
same,TGI,HOP-62 NSCLC,> 100 µM
same,TGI,HOP-92 NSCLC,> 100 µM
same,TGI,HS 578T breast,> 100 µM
same,TGI,HT29 colon,> 100 µM
same,TGI,IGROV1 ovarian,> 100 µM
same,TGI,K-562 leukemia,> 100 µM
same,TGI,KM12 colon,> 100 µM
same,TGI,LOX IMVI melanoma,> 100 µM
same,TGI,M14 melanoma,> 100 µM
same,TGI,MALME-3M melanoma,> 100 µM
same,TGI,MCF7 breast,> 100 µM
same,TGI,MDA-MB-231 breast,> 100 µM
same,TGI,MDA-MB-435,54.5 µM
same,TGI,MDA-N,> 100 µM
same,TGI,NCI-H226 lung,> 100 µM
same,TGI,NCI-H23 lung,> 100 µM
same,TGI,NCI-H460 lung,> 100 µM
same,TGI,NCI/ADR-RES ovarian,> 100 µM
same,TGI,OVCAR-3 ovarian,> 100 µM
same,TGI,OVCAR-4 ovarian,> 100 µM
same,TGI,OVCAR-5 ovarian,> 100 µM
same,TGI,OVCAR-8 ovarian,> 100 µM
same,TGI,PC-3 prostate,> 100 µM
same,TGI,RPMI-8226 leukemia,> 100 µM
same,TGI,RXF 393 renal,> 100 µM
same,TGI,SF-268 CNS,> 100 µM
same,TGI,SF-295 CNS,> 100 µM
same,TGI,SF-539 CNS,> 100 µM
same,TGI,SK-MEL-2 melanoma,> 100 µM
same,TGI,SK-MEL-28 melanoma,> 100 µM
same,TGI,SK-MEL-5 melanoma,> 100 µM
same,TGI,SK-OV-3 ovarian,> 100 µM
same,TGI,SN12C renal,> 100 µM
same,TGI,SNB-19 CNS,> 100 µM
same,TGI,SNB-75 CNS,> 100 µM
same,TGI,SR leukemia,> 100 µM
same,TGI,SW-620 colon,> 100 µM
same,TGI,T-47D breast,> 100 µM
same,TGI,TK-10 renal,> 100 µM
same,TGI,U251 CNS,> 100 µM
same,TGI,UACC-257 melanoma,> 100 µM
same,TGI,UACC-62 melanoma,> 100 µM
same,TGI,UO-31 renal,> 100 µM
O=C(/C=C/c1ccc2ccccc2c1)NCc1ccc(C(=O)NCCc2ccccc2)cc1,TGI,786-0 renal,> 100 µM
same,TGI,A498 renal,> 100 µM
same,TGI,A549 NSCLC,> 100 µM
same,TGI,ACHN renal,> 100 µM
same,TGI,CAKI-1 renal,> 100 µM
same,TGI,CCRF-CEM leukemia,> 100 µM
same,TGI,COLO 205 colon,> 100 µM
same,TGI,DU-145 prostate,> 100 µM
same,TGI,HCC-2998 colon,> 100 µM
same,TGI,HCT-116 colon,> 100 µM
same,TGI,HCT-15 colon,> 100 µM
same,TGI,HL-60(TB) leukemia,> 100 µM
same,TGI,HOP-62 NSCLC,> 100 µM
same,TGI,HOP-92 NSCLC,> 100 µM
same,TGI,K-562 leukemia,> 100 µM
same,TGI,KM12 colon,> 100 µM
same,TGI,LOX IMVI melanoma,> 100 µM
same,TGI,M14 melanoma,> 100 µM
same,TGI,MCF7 breast,> 100 µM
same,TGI,MDA-MB-231 breast,> 100 µM
same,TGI,MDA-MB-435,> 100 µM
same,TGI,MDA-N,> 100 µM
same,TGI,MOLT-4 leukemia,> 100 µM
same,TGI,NCI-H226 lung,> 100 µM
same,TGI,NCI-H23 lung,> 100 µM
same,TGI,NCI-H460 lung,> 100 µM
same,TGI,NCI/ADR-RES ovarian,> 100 µM
same,TGI,OVCAR-3 ovarian,> 100 µM
same,TGI,OVCAR-4 ovarian,> 100 µM
same,TGI,OVCAR-5 ovarian,> 100 µM
same,TGI,OVCAR-8 ovarian,> 100 µM
same,TGI,PC-3 prostate,> 100 µM
same,TGI,RPMI-8226 leukemia,> 100 µM
same,TGI,RXF 393 renal,> 100 µM
same,TGI,SF-268 CNS,> 100 µM
same,TGI,SF-295 CNS,> 100 µM
same,TGI,SK-MEL-2 melanoma,> 100 µM
same,TGI,SK-MEL-28 melanoma,> 100 µM
same,TGI,SK-MEL-5 melanoma,> 100 µM
same,TGI,SK-OV-3 ovarian,> 100 µM
same,TGI,SN12C renal,> 100 µM
same,TGI,SNB-19 CNS,> 100 µM
same,TGI,SNB-75 CNS,> 100 µM
same,TGI,SR leukemia,> 100 µM
same,TGI,SW-620 colon,> 100 µM
same,TGI,T-47D breast,> 100 µM
same,TGI,U251 CNS,> 100 µM
same,TGI,UACC-257 melanoma,> 100 µM
same,TGI,UACC-62 melanoma,> 100 µM
same,TGI,UO-31 renal,> 100 µM
Cc1sc2nc(-c3cccc([N+](=O)[O-])c3)c(/C=N/N=C(N)N)n2c1C,TGI,786-0 renal,3.22 µM
same,TGI,A498 renal,2.88 µM
same,TGI,A549 NSCLC,3.02 µM
same,TGI,ACHN renal,3.08 µM
same,TGI,BT-549 breast,2.83 µM
same,TGI,CAKI-1 renal,3.77 µM
same,TGI,COLO 205 colon,3.72 µM
same,TGI,EKVX NSCLC,3.06 µM
same,TGI,HCC-2998 colon,2.61 µM
same,TGI,HCT-15 colon,3.03 µM
same,TGI,HL-60(TB) leukemia,3.63 µM
same,TGI,HOP-62 NSCLC,3.1 µM
same,TGI,HT29 colon,2.98 µM
same,TGI,IGROV1 ovarian,2.59 µM
same,TGI,KM12 colon,3.24 µM
same,TGI,LOX IMVI melanoma,3.16 µM
same,TGI,M14 melanoma,2.95 µM
same,TGI,MALME-3M melanoma,3.71 µM
same,TGI,MDA-MB-435,3.18 µM
same,TGI,MDA-N,3.15 µM
same,TGI,NCI-H522 lung,3.17 µM
same,TGI,NCI/ADR-RES ovarian,45.1 µM
same,TGI,OVCAR-3 ovarian,4.02 µM
same,TGI,OVCAR-5 ovarian,3.06 µM
same,TGI,OVCAR-8 ovarian,3.23 µM
same,TGI,RXF 393 renal,3.22 µM
same,TGI,SF-295 CNS,2.95 µM
same,TGI,SF-539 CNS,3.72 µM
same,TGI,SK-MEL-2 melanoma,3.09 µM
same,TGI,SK-MEL-28 melanoma,3.03 µM
same,TGI,SK-MEL-5 melanoma,3.03 µM
same,TGI,SK-OV-3 ovarian,3.3 µM
same,TGI,TK-10 renal,2.84 µM
same,TGI,U251 CNS,3.07 µM
same,TGI,UACC-257 melanoma,3.06 µM
same,TGI,UO-31 renal,3.13 µM
CC(=O)OC1C(Oc2c(C)cc3c(c2O)[C@@H](C)CC[C@@H]3[C@@H](C)CCC=C(C)C)OCC(O)C1O (some centres undefined),TGI,786-0 renal,32.8 µM
same,TGI,A498 renal,36.5 µM
same,TGI,A549 NSCLC,30.2 µM
same,TGI,ACHN renal,35.5 µM
same,TGI,CAKI-1 renal,36 µM
same,TGI,CCRF-CEM leukemia,66.9 µM
same,TGI,COLO 205 colon,30.7 µM
same,TGI,DU-145 prostate,29.8 µM
same,TGI,HCT-116 colon,32.2 µM
same,TGI,HCT-15 colon,34.1 µM
same,TGI,HL-60(TB) leukemia,41.7 µM
same,TGI,HOP-62 NSCLC,32.2 µM
same,TGI,HS 578T breast,47.4 µM
same,TGI,HT29 colon,27.6 µM
same,TGI,IGROV1 ovarian,37.9 µM
same,TGI,K-562 leukemia,39.5 µM
same,TGI,KM12 colon,31.2 µM
same,TGI,LOX IMVI melanoma,32.5 µM
same,TGI,M14 melanoma,30.9 µM
same,TGI,MCF7 breast,42.5 µM
same,TGI,MDA-MB-231 breast,38.7 µM
same,TGI,MDA-MB-435,28.1 µM
same,TGI,MDA-N,36 µM
same,TGI,MOLT-4 leukemia,49.7 µM
same,TGI,NCI-H226 lung,40.6 µM
same,TGI,NCI-H23 lung,34.3 µM
same,TGI,NCI-H460 lung,33.2 µM
same,TGI,NCI-H522 lung,36.4 µM
same,TGI,NCI/ADR-RES ovarian,40.6 µM
same,TGI,OVCAR-3 ovarian,29.8 µM
same,TGI,OVCAR-5 ovarian,30.6 µM
same,TGI,OVCAR-8 ovarian,47.4 µM
same,TGI,PC-3 prostate,39.6 µM
same,TGI,SF-268 CNS,33.1 µM
same,TGI,SF-295 CNS,35.3 µM
same,TGI,SF-539 CNS,34.7 µM
same,TGI,SK-MEL-2 melanoma,45.2 µM
same,TGI,SK-MEL-5 melanoma,32.1 µM
same,TGI,SK-OV-3 ovarian,38.1 µM
same,TGI,SN12C renal,32.2 µM
same,TGI,SNB-19 CNS,35.1 µM
same,TGI,SR leukemia,47.3 µM
same,TGI,SW-620 colon,33.8 µM
same,TGI,T-47D breast,43.5 µM
same,TGI,U251 CNS,32.3 µM
same,TGI,UACC-257 melanoma,35.6 µM
same,TGI,UACC-62 melanoma,34.9 µM
same,TGI,UO-31 renal,32.2 µM

# Reference: PubChem BioAssay (NCI)
